The text below walks through data of US20250122181A1, “BENZIMIDAZOLES AS MODULATORS OF IL-17” (Janssen Pharmaceutica NV, priority 2021, published 2025).

Test [1] concerns the target T1, IL-17A(FLAG-Tagged): IL-17RA(His-Tagged) (Homo sapiens, UniProt Q16552, K93Q). Description: IL-17A(FLAG-Tagged): IL-17RA(His-Tagged) Binding Disruption Eu-HTRF Assay, Protocol 1. The note with it: Protocol 1, FLAG tagged IL-17A 2.5 nM; simple average if tested more than once. The method, boiled down:
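IC50 came from a one-site competition fit of the acceptor/donor (665/620 nm) HTRF ratio. His-tagged IL-17RA, Eu-anti-FLAG and D2-anti-His were added after a 1 h rt compound preincubation with FLAG-tagged IL-17A dimer in PBS/0.01% Triton X-100, followed by 2 h at rt before reading.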

The target of test [2] is T1, IL-17A(FLAG-Tagged): IL-17RA(His-Tagged). Briefly: IL-17A(FLAG-Tagged): IL-17RA(His-Tagged) Binding Disruption Eu-HTRF Assay, Protocol 2. The note with it: Protocol 2, FLAG tagged IL-17A 1 nM; simple average if tested more than once. The source says:
An antibody directed against the FLAG tag of IL-17A (SEQ ID NO: 1) is labeled with the HTRF donor chromophore (Europium-cryptate). IL-17A is present as a dimer that is “locked into” this quaternary structure due to the formation of loop-spanning […] disulfide bridges. The construct of IL-17RA used in the assay excludes the […] portion of the receptor and is fused to a C-terminal 10×His tag (SEQ ID NO:2). An antibody directed against the His tag of the IL-17RA chimera is labeled with the HTRF acceptor chromophore (“D2”). The fluorescence-resonance energy transfer (FRET) depends on the vicinity of the donor chromophore to the acceptor, and interruption of the binding between the IL-17A and IL-17RA causes the reduction/loss of FRET. Therefore, this assay allows to evaluate the compound effect on the binding IL-17A and IL-17RA by monitoring the fluorescence intensity of donor vs acceptor. The assay was run using either Protocol 1 or Protocol 2 as described below.
Protocol 2. 40 nl of 2-fold serial diluted compound solution for total 22 dilution points is added into each well of a 1536-well, white, low-volume, non-binding plate (Greiner #782904), then 2 μl of FLAG tagged IL-17A at 2× final concentration (1 nM) in solution of PBS+0.01% Triton-X100 is added to each well. The assay plate is briefly centrifuged then incubated for 1 h at rt. A mixed solution is prepared containing 2×5 nM 10HIS×IL-17RA, 2×2.5 nM Eu-anti-FLAG (CISBIO), 2×5 nM D2-anti-HIS (CISBIO) in PBS+0.01% Triton-X100+200 mM Potassium Fluoride (Sigma 60238) and 2 μl of mix is added to each well of the assay plate. The plate is briefly centrifuged then incubated for 2 h at rt. The HTRF intensities at the wavelength of donor (615 nm) and acceptor (665 nm) are measured using BMG Pherastar. The ratio between intensities at two wavelengths is calculated and plotted against the compound concentration and the data is fitted to a one-site competition model to yield IC50 of the compound.
On the technique in general: Time-resolved FRET reads energy transfer from a long-lived donor to a nearby acceptor.

For test [3], the system named is IL-17A-induced G-CSF production in human normal keratinocyte (NHK). Briefly: NHK Assay: IL-17A-induced G-CSF production in human normal keratinocyte. As to conditions: Homo sapiens, Keratinocyte, 24 h, IL-17A 5 ng/mL, simple average if tested more than once. The format is cell-based. The method, boiled down:
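Compound titrations are first mixed with recombinant human IL-17A for 1 h at room temperature. The mixture goes onto adult normal human keratinocytes (final IL-17A 5 ng/mL, 5% FBS, 0.2% DMSO) for 24 h at 37 °C. Secreted G-CSF is then measured by HTRF and IC50 fitted.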

Test [4] has as its system patients with moderate-to-severe HS. The note with it: seven of nine patients with moderate-to-severe HS, open-label pilot-trial; cited from earlier work.

T1 sequence (Q16552 with tags, fused parts or gaps K93Q): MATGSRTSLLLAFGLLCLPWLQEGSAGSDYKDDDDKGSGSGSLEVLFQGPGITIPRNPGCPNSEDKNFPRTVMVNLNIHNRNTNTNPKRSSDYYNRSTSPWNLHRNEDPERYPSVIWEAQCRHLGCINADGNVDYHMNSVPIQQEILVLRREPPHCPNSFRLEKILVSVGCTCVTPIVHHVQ

In the case of `CC(C)n1nccc1C(=O)NC(c1nc2nc([C@@H](C3CC3)N3CC(F)(F)CNC3=O)ccc2[nH]1)[C@@H](C)O[C@H](C)C(F)(F)F` (single isomer, unassigned) [Example 75, N-((1R*,2R)-1-(5-((R)-Cyclopropyl(5,5-difluoro-2-oxotetrahydropyrimidin-1(2H)-yl)methyl)-1H-imidazo[4,5-b]pyridin-2-yl)-2-(((R)-1,1,1-trifluoropropan-2-yl)oxy)propyl)-1-isopropyl-1H-pyrazole-5-carboxamide], the half-maximal inhibitory concentration (IC50) (commonly the concentration needed to halve the response being measured) is over 100 nM in test [1], over 100 nM in test [2] and under 50 nM in test [3].
In the case of `Cc1nonc1C(=O)N[C@@H](COC(C)(C)C(F)(F)F)c1nc2cc([C@@H](C3CC3)N3C[C@@H](C(C)C)NC3=O)ccc2[nH]1` [Example 83, N—((R)-1-(5-((R)-Cyclopropyl((R)-4-isopropyl-2-oxoimidazolidin-1-yl)methyl)-1H-benzo[d]imidazol-2-yl)-2-((1,1,1-trifluoro-2-methylpropan-2-yl)oxy)ethyl)-4-methyl-1,2,5-oxadiazole-3-carboxamide], the concentration for half-maximal inhibition (IC50) in test [1], in test [2] and in test [3] was under 50 nM throughout.
Turning to secukinumab, the “patients achieved HiSCR” value in test [4] is on record as 78%.
